# According to patent US11879012B2, “Method of modulating cell proliferation” (METRO NORTH HOSPITAL AND HEALTH SERVICE, priority 2018, dated 2024):
# Tested on: corneal-limbal epithelial cells
# Experiment: MTT conversion / proliferation of primary corneal-limbal epithelial cells
# Type: cell-based, human
# Conditions: 40 μM Y27632 alone; FIG. 5D
# Source text: Cultures of non-transformed human corneal epithelial cells were established from either enzymatically-dissociated sample of corneal-scleral tissue or from pieces of intact corneal limbus seeded into culture dishes (i.e., explant method). In either case, corneal tissue from cadaveric donors was used. Each tissue sample was acquired with consent and ethics approval our HREC Approval No. 0800000807) in the form of either surgical cut-offs or intact corneas that had been rejected by the eye bank (e.g., poor endothelial cell density).
# For dissociated cultures, washed tissue samples were cut into quarters before being incubated for 1 hour at 37° C. in 0.25% (w/v) Dispase solution (Life Technologies). Epithelial tissue was subsequently harvested from the limbus and peripheral cornea by scraping with a pipette tip, then dissociated by digestion in 0.05% Trypsin/0.02% EDTA (Sigma) for 5 minutes at 37° C. The resulting cell suspension was washed and resuspended in complete culture medium. […]
# To initiate cultures from whole tissue, each well of a 6-well culture plate (approximately 6×10 cm^2) was initially filled with 2 mL, of 100% FBS and incubated for at least 30 minutes at 37° C. […] Over subsequent days, each p0 culture was routinely monitored for evidence of epithelial outgrowth until a confluent sheet measuring approximately 2-3 cm^2 had been achieved (approximately 1-2 weeks). […]
smiles,measurement,value
C[C@@H](N)[C@H]1CC[C@H](C(=O)Nc2ccncc2)CC1 [Y27632],MTT conversion (cell proliferation),dose-dependent increase in MTT conversion
